This is an account of results in US8697641B2, “4-amino-4-oxobutanoyl peptide cyclic analogues, inhibitors of viral replication” (Achillion Pharmaceuticals, Inc., priority 2008, dated 2014).

Structures are written as SMILES.

This assay concerns Hepatitis C replicon. Put plainly: HCV replicon assay (NPT ELISA readout) in Huh-7 replicon-containing cells. The format is cell-based, Hepatitis C virus. The settings on record: Hepatitis C virus, 72 h; HCV replicon in Huh-7 cells, three days incubation. In a few lines: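 Replication is measured as neomycin phosphotransferase level by captured ELISA after three days of compound exposure (typically 10 to 0.03 μM, 6 concentrations) at 37 °C. Cells are Huh-7 harbouring an HCV replicon with neo gene and NS3-NS5B; interferon alpha is the positive control.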
(In general: A replicon is a self-replicating genome or part of one, used to study replication in cells.)
For the compound `COc1ccc2c(O[C@@H]3C[C@H]4C(=O)N[C@@]5(C(=O)NS(=O)(=O)C6CC6)C[C@@H]5/C=C\CCCCC[C@H](CC(=O)N5CCCCC5)C(=O)N4C3)cc(-c3ccccc3)nc2c1` [Compound 49, (2R,6R,13aR, 14aS,16aS,Z)-N-(cyclopropylsulfonyl)-2-(7-methoxy-2-phenylquinolin-4-yloxy)-5,16-dioxo-6-(2-oxo-2-(piperidin-1-yl)ethyl)-1,2,3,5,6,7,8,9,10,11, 13a,14,14a,15,16,16a-hexadecahydrocyclopropa [e]pyrrolo[1,2-a][1,4] diazacyclopentadecine-14a-carboxamide], the concentration giving a half-maximal response (EC50) (as a rule, the concentration that produces a half-maximal response) is 1000 to 10000 nM.
Take `COc1ccc2c(O[C@@H]3C[C@H]4C(=O)N[C@]5(C(=O)NS(=O)(=O)C6CC6)C[C@H]5/C=C\CCCCC[C@H](CC(=O)N5CCC(C(F)(F)F)CC5)C(=O)N4C3)cc(-c3ccccc3)nc2c1` [Compound 62, (2R,6R,13aS, 14aR,16aS,Z)-N-(cyclopropylsulfonyl)-2-(7-methoxy-2-phenylquinolin-4-yloxy)-5,16-dioxo-6-(2-oxo-2-(4-(trifluoromethyl)piperidin-1-yl)ethyl)-1,2,3,5,6,7,8,9,10,11, 13a,14,14a,15,16,16a-hexadecahydrocyclopropa [e]pyrrolo[1,2-a][1,4] diazacyclopentadecine-14a-carboxamide]: the EC50 was < 1000 nM.
For the compound `O=C1N[C@]2(C(=O)NS(=O)(=O)C3CC3)C[C@H]2/C=C\CCCCC[C@H](CC(=O)N2CCC(C(F)(F)F)CC2)C(=O)N2C[C@H](Oc3cc(-c4ccccn4)nc4c5c(ccc34)OCC5)C[C@@H]12` [Compound 83, (2R,6R,14aR,16aS,Z)-N-(cyclopropylsulfonyl)-5,16-dioxo-6-(2-oxo-2-(4-(trifluoromethyl)piperidin-1-yl)ethyl)-2-(2-(pyridin-2-yl)-8,9-dihydrofuro[2,3-h]quinolin-4-yloxy)-1,2,3,5,6,7,8,9,10,11, 13a,14,14a,15,16,16a-hexadecahydrocyclopropa [e]pyrrolo[1,2-a][1,4] diazacyclopentadecine-14a-carboxamide], the EC50 is < 1000 nM.
Turning to `O=C1N[C@]2(C(=O)NS(=O)(=O)C3CC3)C[C@H]2/C=C\CCCCC[C@H](CC(=O)N2CCCC(F)(F)C2)C(=O)N2C[C@H](OC(=O)N3CCc4ccccc4C3)C[C@@H]12` [Compound 113, (2R,6R,14aR, 16aS,Z)-14a-(cyclopropylsulfonyl-carbamoyl)-6-(2-(3,3-difluoropiperidin-1-yl)-2-oxoethyl)-5,16-dioxo-1,2,3,5,6,7,8,9,10,11, 13a,14,14a,15,16,16a-hexadecahydrocyclopropa [e]pyrrolo[1,2-a][1,4] diazacyclopentadecin-2-yl 3,4-dihydroisoquinoline-2(1H)-carboxylate], the half-maximal effective concentration (EC50) was < 1000 nM.
The figure for `COc1ccc2c(O[C@@H]3C[C@H]4C(=O)N[C@]5(C(=O)NS(=O)(=O)C6CC6)C[C@H]5/C=C\CCCCC[C@H](CC(=O)N5CCC(C(F)(F)F)CC5)C(=O)N4C3)cc(-c3nc(C(C)C)cs3)nc2c1C` [Compound 126, (2R,6R,14aR,16aS,Z)-N-(cyclopropylsulfonyl)-2-(2-(4-isopropylthiazol-2-yl)-7-methoxy-8-methylquinolin-4-yloxy)-5,16-dioxo-6-(2-oxo-2-(4-(trifluoromethyl)piperidin-1-yl)ethyl)-1,2,3,5,6,7,8,9,10,11, 13a,14,14a,15,16,16a-hexadecahydrocyclopropa [e]pyrrolo[1,2-a][1,4] diazacyclopentadecine-14a-carboxamide] is < 1000 nM; for `COc1ccc2c(O[C@@H]3C[C@H]4C(=O)N[C@]5(C(=O)NS(=O)(=O)C6CC6)C[C@H]5/C=C\CCCCC[C@H](CC(=O)N5CCC(C(F)(F)F)CC5)C(=O)N4C3)nccc2c1Cl` [Compound 124] it is < 1000 nM; for `CCOC(=O)[C@]12C[C@@H]1/C=C\CCCCC[C@H](CC(=O)OC(C)(C)C)C(=O)N1C[C@H](Oc3cc(-c4ccccc4)nc4cc(OC)ccc34)C[C@H]1C(=O)N2` [Compound 47, (2R,6R,13aR,14aS, 16aS,Z)-ethyl 6-(2-tert-butoxy-2-oxoethyl)-2-(7-methoxy-2-phenylquinolin-4-yloxy)-5,16-dioxo-1,2,3,5,6,7,8,9,10,11, 13a,14,14a,15,16,16a-hexadecahydrocyclopropa [e]pyrrolo[1,2-a][1,4] diazacyclopentadecine-14a-carboxylate] it is < 1000 nM.
With `COc1ccc2c(O[C@@H]3C[C@H]4C(=O)N[C@]5(C(=O)NS(=O)(=O)C6CC6)C[C@H]5/C=C\CCCCC[C@H](CC(=O)N5CCCCC5)C(=O)N4C3)cc(-c3ccccn3)nc2c1Cl` [Compound 90, (2R,6R,14aR,16aS,Z)-2-(8-chloro-7-methoxy-2-(pyridin-2-yl)quinolin-4-yloxy)-N-(cyclopropylsulfonyl)-5, 16-dioxo-6-(2-oxo-2-(piperidin-1-yl)ethyl)-1,2,3,5,6,7,8,9,10,11, 13a,14,14a,15,16,16a-hexadecahydrocyclopropa [e]pyrrolo[1,2-a][1,4] diazacyclopentadecine-14a-carboxamide], the EC50 was < 1000 nM.
On to `O=C1N[C@]2(C(=O)NS(=O)(=O)C3CC3)C[C@H]2/C=C\CCCCC[C@H](CC(=O)N2CCCCC2)C(=O)N2C[C@H](Oc3cc(-c4ccccn4)nc4c5c(ccc34)OCC5)C[C@@H]12` [Compound 84, (2R,6R,14aR,16aS,Z)-N-(cyclopropylsulfonyl)-5,16-dioxo-6-(2-oxo-2-(piperidin-1-yl)ethyl)-2-(2-(pyridin-2-yl)-8,9-dihydrofuro[2,3-h]quinolin-4-yloxy)-1,2,3,5,6,7,8,9,10,11, 13a,14,14a,15,16,16a-hexadecahydrocyclopropa [e]pyrrolo[1,2-a][1,4] diazacyclopentadecine-14a-carboxamide], for which the EC50 is > 10000 nM.
The figure for `COc1ccc2c(O[C@@H]3C[C@H]4C(=O)N[C@@H](C(=O)NS(=O)(=O)C5CC5)C/C=C\CCCCC[C@H](CC(=O)N5CCCCC5)C(=O)N4C3)cc(-c3ccccc3)nc2c1` [Compound 56, (3R,12R,16R,17aS, Z)-N-(cyclopropylsulfonyl)-16-(7-methoxy-2-phenylquinolin-4-yloxy)-1,13-dioxo-12-(2-oxo-2-(piperidin-1-yl)ethyl)-2,3,4,7,8,9,10,11, 12,13,15,16,17,17a-tetradecahydro-1H-pyrrolo[1,2-a][1,4] diazacyclopentadecine-3-carboxamide] is 1000 to 10000 nM; for `COc1ccc2c(O[C@@H]3C[C@H]4C(=O)N[C@]5(C(=O)NS(=O)(=O)C6CC6)C[C@H]5/C=C\CCCCC[C@H](CC(=O)N5CCC(F)(F)CC5)C(=O)N4C3)cc(-c3ccccc3)nc2c1` [Compound 61, (2R,6R,13aS, 14aR,16aS,Z)-N-(cyclopropylsulfonyl)-6-(2-(4,4-difluoropiperidin-1-yl)-2-oxoethyl)-2-(7-methoxy-2-phenylquinolin-4-yloxy)-5,16-dioxo-1,2,3,5,6,7,8,9,10,11, 13a,14,14a,15,16,16a-hexadecahydrocyclopropa [e]pyrrolo[1,2-a][1,4] diazacyclopentadecine-14a-carboxamide] it is < 1000 nM.
